Assay results from patent US20220175761A1, “BI-LIGAND DRUG CONJUGATE AND USE THEREOF” (COHERENT BIOPHARMA (SUZHOU), LIMITED, priority 2019, published 2022).
Numbered stars: 1 amine (or outer) side, 2 acyl side, 3 side chain; on linkers, the order of the positions; unused ones are H or OH. Bridge positions count the residues as written; N and C are the ends. Square brackets hold non-standard residues; d marks the D form. Peptide text beside a SMILES is read from it. I, II: the chains in the order shown. * marks the point of attachment. ξ: configuration not given here. Hexanoyl(6-succinimido-3yl) = O=C1CC([*:1])C(=O)N1CCCCCC(=O)[*:2]; EuK = O=C(O)CC[C@H](NC(=O)N[C@@H](CCCCN*)C(=O)O)C(=O)O; Dolaproine = CO[C@@H]([C@@H]1CCCN1)[C@@H](C)C(=O)O; Dil = CC[C@H](C)[C@H](NC)[C@@H](CC(=O)O)OC; PABC = O=C(OCc1ccc(N[*:1])cc1)[*:2]; X1 = C[C@@H](N*)[C@@H](O)c1ccccc1; X2 = O=C(Cc1ccc(CN[*:1])cc1)[*:2]; PEG4 = NCCOCCOCCOCCOCCC(=O)O; NMeV = CN[C@H](C(=O)O)C(C)C; ξCit = NC(=O)NCCCC(N)C(=O)O; CO = O=C([*:1])[*:2]; Butyryl = CCCC(=O)*; Ahx = NCCCCCC(=O)O

How the values were obtained:
[1] = system: CFPAC-1 (human pancreatic cancer cells); test: Inhibition of cell line proliferation, CCK8; type: cell-based
Experimental: (§1) Experimental operations: PANC-1 and CFPAC-1 cells were prepared in advance, counted, and plated in 96-well cell culture plates at a cell density of 4×10^4 cells/ml (100 μl/well); negative control and blank control wells were set on each plate. After adherent cell culture overnight, the diluted samples to be tested were added at 50 μl/well. The plates were placed in an incubator at 37° C., 5% CO2 and cultured for 68-72 hours. To each well, 15 μl (10% of the liquid volume in a well) of a color developing solution from CCK8 was added; and the plates were incubated at 37° C. for 45-70 minutes and each plate was read at 450 nm on a microplate reader. The data was edited using SoftMax Pro and a 4-P fitting curve was plotted.
(§2) Experimental operations: LNCaP, SK-BR-3, NCI-H226, CFPAC-1 and PANC-1 cells were prepared in advance and counted; with a culture medium (IMDM+10% FBS+1× L-Glutamine+1×P/S), the cells LNCaP, SK-BR-3 and CFPAC-1 were diluted to 4×10^4 cells/ml, NCI-H226 was diluted to 2.0×10^4 cells/ml and PANC-1 was diluted to 3.0×10^4 cells/ml; the diluted cell solution was plated in 96-well plates at 100 μl/well; and negative control and blank control wells were set on each plate. After adherent cell culture overnight, the diluted samples to be tested were added at 50 μl/well. The plates were placed in an incubator at 37° C., 5% CO2 and cultured for 68-72 hours. To each well, 15 μl (10% of the liquid volume in a well) of a color developing solution from CCK8 was added; and the plates were incubated at 37° C. for 45-70 minutes and each plate was read at 450 nm on a microplate reader. The data was edited using SoftMax Pro and a 4-P fitting curve was plotted.
(§3) Experimental Operations: LNCaP, SK-BR-3, MDA-MB-468 and CFPAC-1 cells were prepared in advance and counted; with a culture medium (IMDM+10% FBS+1× L-Glutamine+1×P/S), the cells LNCaP, SK-BR-3, MDA-MB-468 and CFPAC-1 were diluted to 4×10^4 cells/ml; the diluted cell solution was plated in 96-well plates at 100 µl/well; and negative control and blank control wells were set on each plate. After adherent cell culture overnight, the diluted samples to be tested were added at 50 μl/well. The plates were placed in an incubator at 37° C., 5% CO2 and cultured for 68-72 hours. To each well, 15 μl (10% of the liquid volume in a well) of a color developing solution from CCK8 was added; and the plates were incubated at 37° C. for 45-70 minutes and each plate was read at 450 nm on a microplate reader. The data was edited using SoftMax Pro and a 4-P fitting curve was plotted.
as §3, with “Operations: LNCaP, MDA-MB-468, CFPAC-1 and PANC-1” for “Operations: LNCaP, SK-BR-3, MDA-MB-468 and CFPAC-1”, “CFPAC-1 and PANC-1 cells were” for “MDA-MB-468 and CFPAC-1 cells were”, “cells LNCaP, MDA-MB-468 and” for “cells LNCaP, SK-BR-3, MDA-MB-468 and”, “to 4×10^4 cells/ml, and PANC-1 was diluted to 3.0×10^4 cells/ml; the” for “to 4×10^4 cells/ml; the”, “at 100 μl/well; and negative” for “at 100 µl/well; and negative”
Experimental operations: NCI-H226, CFPAC-1 and MDA-MB-468 cells were prepared in advance and counted; MDA-MB-468 and CFPAC-1 cells were plated at a density of 2×10^4 cells/ml (100 μl/well) and NCI-H226 cells were plated at a density of 1×10^4 cells/ml (100 μl/well) in 96-well plates; and negative control and blank control wells were set on each plate. After adherent cell culture overnight, the diluted samples to be tested were added at 50 μl/well. The plates were placed in an incubator at 37° C., 5% CO2 and cultured for 68-72 hours. […]

[2] = system: PANC-1 (human pancreatic cancer cells); test: Inhibition of cell line proliferation, CCK8; type: cell-based
Experimental: as §1, §2
as §3, with “Operations: LNCaP, MDA-MB-468, CFPAC-1 and PANC-1” for “Operations: LNCaP, SK-BR-3, MDA-MB-468 and CFPAC-1”, “CFPAC-1 and PANC-1 cells were” for “MDA-MB-468 and CFPAC-1 cells were”, “cells LNCaP, MDA-MB-468 and” for “cells LNCaP, SK-BR-3, MDA-MB-468 and”, “to 4×10^4 cells/ml, and PANC-1 was diluted to 3.0×10^4 cells/ml; the” for “to 4×10^4 cells/ml; the”, “at 100 μl/well; and negative” for “at 100 µl/well; and negative”

[3] = system: MDA-MB-468 (human breast cancer cells); test: Inhibition of cell line proliferation, CCK8; type: cell-based
Experimental: as §3
as §3, with “Operations: LNCaP, MDA-MB-468, CFPAC-1 and PANC-1” for “Operations: LNCaP, SK-BR-3, MDA-MB-468 and CFPAC-1”, “CFPAC-1 and PANC-1 cells were” for “MDA-MB-468 and CFPAC-1 cells were”, “cells LNCaP, MDA-MB-468 and” for “cells LNCaP, SK-BR-3, MDA-MB-468 and”, “to 4×10^4 cells/ml, and PANC-1 was diluted to 3.0×10^4 cells/ml; the” for “to 4×10^4 cells/ml; the”, “at 100 μl/well; and negative” for “at 100 µl/well; and negative”
Experimental operations: NCI-H226, CFPAC-1 and MDA-MB-468 cells were prepared in advance and counted; MDA-MB-468 and CFPAC-1 cells were plated at a density of 2×10^4 cells/ml (100 μl/well) and NCI-H226 cells were plated at a density of 1×10^4 cells/ml (100 μl/well) in 96-well plates; and negative control and blank control wells were set on each plate. After adherent cell culture overnight, the diluted samples to be tested were added at 50 μl/well. The plates were placed in an incubator at 37° C., 5% CO2 and cultured for 68-72 hours. To each well, 15 μl (10% of the liquid volume in a well) of a color developing solution from CCK8 was added; and the plates were incubated at 37° C. for 45-70 minutes and each plate was read at 450 nm on a microplate reader. The data was edited using SoftMax Pro and a 4-P fitting curve was plotted.

[4] = system: SCLC-21H (small cell lung cancer cells); test: Tumor growth inhibition in subcutaneous xenograft model (CDX); type: in vivo, BALB/c-nude mice; details: SCLC-21H CDX
Experimental: Main CDX models: HPAF-II (human pancreatic cancer cells), NCI-H226 (human lung cancer cells) and SCLC-21H (small cell lung cancer cells)
The cells or tumor tissue mass were prepared and subcutaneously inoculated into the anterior right flank of BALB/c-nude mice. When the tumor volume expanded to 80-160 mm^3, a randomized grouping was performed, and a model control group and administration groups were set. The mice were administrated from the first day of grouping, wherein the administration dose was adjusted according to the latest weight measurement. The mice were administrated via tail vein injection at an administration volume of 10 μl/g. After grouping and administration, the effects of tumor growth and treatment on normal behaviors of animals, specifically including the activity of experimental animals, food intake and drinking status, weight gain or loss status, and other abnormal conditions in eyes, hair, etc., were monitored. After grouping and administration, the weight of mice was measured twice a week to calculate the rate of weight change; at the same time, the long diameter and short diameter of the tumor were measured with a vernier caliper, and the tumor volume, relative tumor proliferation rate, tumor volume inhibition rate and other indicators were calculated. The formula of tumor volume is TV=0.5 a×b^2, wherein a is […] the long diameter of a tumor and b is the short diameter of a tumor.

[5] = system: LNCaP (human prostate cancer cells); test: Inhibition of cell line proliferation, CCK8; type: cell-based; details: LNCaP
Description: Since different cells have different sensitivity to a cell proliferation inhibitory toxicity of the payload in a ligand conjugate, the quantitative analysis may be interfered occasionally. A series of cell lines with known expression levels of receptors of different ligands were selected and tested for the response to inhibitory effects of the cell proliferation of a ligand conjugate and a single payload. The IC50 ratio of a single payload to that of a ligand conjugate in same cell line were taken to remove such interference.
as §1, with “LNCaP” for “PANC-1”, “22RV1” for “CFPAC-1”, “cells/ml and 2.0×10^4 cells/ml, respectively” for “cells/ml”, “plotted. […]” for “plotted.”

CCCC(=O)N[C@@H](Cc1ccccc1)C(=O)N[C@H]1CSSC[C@@H](C(=O)N[C@H](C(=O)N[C@@H](CCCCNC(=O)[C@H](CCC(=O)O)NC(=O)CCOCCOCCOCCOCCNC(=O)[C@H](CCC(=O)O)NC(=O)[C@H](CSC2CC(=O)N(CCCCCC(=O)N[C@H](C(=O)NC(CCCNC(N)=O)C(=O)Nc3ccc(COC(=O)N(C)[C@H](C(=O)N[C@H](C(=O)N(C)[C@@H]([C@@H](C)CC)[C@@H](CC(=O)N4CCC[C@H]4[C@H](OC)[C@@H](C)C(=O)N[C@H](C)[C@@H](O)c4ccccc4)OC)C(C)C)C(C)C)cc3)C(C)C)C2=O)NC(=O)CCCCCNC(=O)[C@H](CCCCN)NC(=O)[C@H](CC(=O)O)NC(=O)[C@H](CC(=O)O)NC(=O)Cc2ccc(CNC(=O)NCCCC[C@H](NC(=O)N[C@@H](CCC(=O)O)C(=O)O)C(=O)O)cc2)C(N)=O)[C@@H](C)O)NC(=O)[C@H]([C@@H](C)O)NC(=O)[C@H](CCCCN)NC(=O)[C@H](Cc2c[nH]c3ccccc23)NC(=O)[C@H](Cc2ccc(O)cc2)NC1=O (stereo partly drawn) [CB-1820] (I: Butyryl-FCYWKTCTK-NH2 / II: {EuK-CO}-[X2]DDK[Ahx]CE[PEG4]E / III: V[ξCit][PABC][NMeV]V[Dil][Dolaproine]-X1; disulfide I:2-I:7; amide I:9-II:C; linker II:6-III:N via Hexanoyl(6-succinimido-3yl))
IC50 (MMAE)/IC50 (conjugate) ([1]; CFPAC-1): 0.0421
IC50 ([1]; CFPAC-1, 68-72 hours, CCK8): 0.356 µM
IC50 (MMAE)/IC50 (conjugate) ([2]; PANC-1): 0.0364
IC50 ([2]; PANC-1, 68-72 hours, CCK8): 0.055 µM
IC50 (MMAE)/IC50 (conjugate) ([3]; MDA-MB-468): 0.0323
IC50 ([3]; MDA-MB-468, 68-72 hours, CCK8): 0.062 µM
anti-tumor growth effect (in words) [4]: obvious anti-tumor growth effect
IC50 ratio (MMAE/conjugate) [5]: 0.1429
IC50 ([5]; 68-72 hours, CCK8): 0.021 µM
